Reference: ChEMBL document CHEMBL3593218, “4,6-Substituted-1,3,5-triazin-2(1H)-ones as monocyclic catalytic inhibitors of human DNA topoisomerase IIα targeting the ATP binding site” (Bioorg Med Chem, 2015)
Several values for one entry are separate records, joined by “and”; a condition that tells them apart may be missing. Identical values can stand only once.

What was measured:
[1] = target: T1, DNA topoisomerase 2-alpha (Homo sapiens, UniProt P11388); assay: Inhibition of human DNA topoisomerase IIalpha using plasmid pNO1 as a substrate after 30 mins
[2] = Lipophilicity, log P of the compound; assay type: physicochemical; conditions: octanol/water
[3] = target: T1, DNA topoisomerase 2-alpha; assay: Inhibition of human DNA topoisomerase IIalpha assessed as decatenation of kDNA at 500 uM after 90 mins by ethidium bromide staining; parameters: scale not given: the % may be the effect or the level left
[4] = target: T1, DNA topoisomerase 2-alpha; assay: Inhibition of human DNA topoisomerase IIalpha assessed as decatenation of kDNA at 125 uM after 90 mins by ethidium bromide staining; parameters: scale not given: the % may be the effect or the level left
[5] = target: T1, DNA topoisomerase 2-alpha; assay: Inhibition of human DNA topoisomerase IIalpha assessed as decatenation of kDNA at 31.5 uM after 90 mins by ethidium bromide staining; parameters: scale not given: the % may be the effect or the level left
[6] = target: T1, DNA topoisomerase 2-alpha; assay: Inhibition of human DNA topoisomerase IIalpha assessed as decatenation of kDNA at 3.9 uM after 90 mins by ethidium bromide staining; parameters: scale not given: the % may be the effect or the level left
[7] = target: T1, DNA topoisomerase 2-alpha; assay: Inhibition of human DNA topoisomerase IIalpha assessed as decatenation of kDNA after 90 mins by ethidium bromide staining
[8] = target: T1, DNA topoisomerase 2-alpha; assay: Inhibition of human DNA topoisomerase IIalpha assessed as reduction in enzyme-catalyzed supercoiling of relaxed circular pBR322 DNA by measuring linear DNA level at 3.9 uM after 60 mins by agarose gel electrophoresis; parameters: scale not given: the % may be the effect or the level left
[9] = target: T1, DNA topoisomerase 2-alpha; assay: Inhibition of human DNA topoisomerase IIalpha assessed as reduction in enzyme-catalyzed supercoiling of relaxed circular pBR322 DNA by measuring linear DNA level at 31.5 uM after 60 mins by agarose gel electrophoresis; parameters: scale not given: the % may be the effect or the level left
[10] = target: T1, DNA topoisomerase 2-alpha; assay: Inhibition of human DNA topoisomerase IIalpha assessed as reduction in enzyme-catalyzed supercoiling of relaxed circular pBR322 DNA by measuring linear DNA level at 125 uM after 60 mins by agarose gel electrophoresis; parameters: scale not given: the % may be the effect or the level left
[11] = target: T1, DNA topoisomerase 2-alpha; assay: Inhibition of human DNA topoisomerase IIalpha assessed as reduction in enzyme-catalyzed supercoiling of relaxed circular pBR322 DNA by measuring linear DNA level at 500 uM after 60 mins by agarose gel electrophoresis; parameters: scale not given: the % may be the effect or the level left
[12] = target: T1, DNA topoisomerase 2-alpha; assay: Inhibition of human DNA topoisomerase IIalpha assessed as reduction in enzyme-catalyzed supercoiling of relaxed circular pBR322 DNA by measuring linear DNA level at 15.625 uM after 60 mins by agarose gel electrophoresis; parameters: scale not given: the % may be the effect or the level left
[13] = target: T1, DNA topoisomerase 2-alpha; assay: Inhibition of human DNA topoisomerase IIalpha assessed as reduction in enzyme-catalyzed supercoiling of relaxed circular pBR322 DNA by measuring linear DNA level at 62.5 uM after 60 mins by agarose gel electrophoresis; parameters: scale not given: the % may be the effect or the level left
[14] = target: T1, DNA topoisomerase 2-alpha; assay: Inhibition of human DNA topoisomerase IIalpha assessed as reduction in enzyme-catalyzed supercoiling of relaxed circular pBR322 DNA by measuring linear DNA level at 50 uM after 60 mins by agarose gel electrophoresis; parameters: scale not given: the % may be the effect or the level left
[15] = target: T1, DNA topoisomerase 2-alpha; assay: Inhibition of human DNA topoisomerase IIalpha assessed as reduction in enzyme-catalyzed supercoiling of relaxed circular pBR322 DNA by measuring linear DNA level at 3.9 uM after 60 mins by agarose gel electrophoresis in presence of 50 uM of etoposide; parameters: scale not given: the % may be the effect or the level left
[16] = target: T1, DNA topoisomerase 2-alpha; assay: Inhibition of human DNA topoisomerase IIalpha assessed as reduction in enzyme-catalyzed supercoiling of relaxed circular pBR322 DNA by measuring linear DNA level at 31.5 uM after 60 mins by agarose gel electrophoresis in presence of 50 uM of etoposide; parameters: scale not given: the % may be the effect or the level left
[17] = target: T1, DNA topoisomerase 2-alpha; assay: Inhibition of human DNA topoisomerase IIalpha assessed as reduction in enzyme-catalyzed supercoiling of relaxed circular pBR322 DNA by measuring linear DNA level at 125 uM after 60 mins by agarose gel electrophoresis in presence of 50 uM of etoposide; parameters: scale not given: the % may be the effect or the level left
[18] = target: T1, DNA topoisomerase 2-alpha; assay: Inhibition of human DNA topoisomerase IIalpha assessed as reduction in enzyme-catalyzed supercoiling of relaxed circular pBR322 DNA by measuring linear DNA level at 500 uM after 60 mins by agarose gel electrophoresis in presence of 50 uM of etoposide; parameters: scale not given: the % may be the effect or the level left
[19] = target: T1, DNA topoisomerase 2-alpha; assay: Inhibition of human DNA topoisomerase IIalpha assessed as reduction in enzyme-catalyzed supercoiling of relaxed circular pBR322 DNA by measuring linear DNA level at 3.9 uM after 60 mins by agarose gel electrophoresis in presence of 62.5 uM of etoposide; parameters: scale not given: the % may be the effect or the level left
[20] = target: T1, DNA topoisomerase 2-alpha; assay: Inhibition of human DNA topoisomerase IIalpha assessed as reduction in enzyme-catalyzed supercoiling of relaxed circular pBR322 DNA by measuring linear DNA level at 31.5 uM after 60 mins by agarose gel electrophoresis in presence of 62.5 uM of etoposide; parameters: scale not given: the % may be the effect or the level left
[21] = target: T1, DNA topoisomerase 2-alpha; assay: Inhibition of human DNA topoisomerase IIalpha assessed as reduction in enzyme-catalyzed supercoiling of relaxed circular pBR322 DNA by measuring linear DNA level at 125 uM after 60 mins by agarose gel electrophoresis in presence of 62.5 uM of etoposide; parameters: scale not given: the % may be the effect or the level left
[22] = target: T1, DNA topoisomerase 2-alpha; assay: Inhibition of human DNA topoisomerase IIalpha assessed as reduction in enzyme-catalyzed supercoiling of relaxed circular pBR322 DNA by measuring linear DNA level at 500 uM after 60 mins by agarose gel electrophoresis in presence of 62.5 uM of etoposide; parameters: scale not given: the % may be the effect or the level left
[23] = target: T1, DNA topoisomerase 2-alpha; assay: Inhibition of human DNA topoisomerase IIalpha assessed as reduction in enzyme-catalyzed supercoiling of relaxed circular pBR322 DNA by measuring linear DNA level after 60 mins by agarose gel electrophoresis
[24] = target: T1, DNA topoisomerase 2-alpha; assay: Inhibition of human DNA topoisomerase IIalpha ATPase activity assessed as residual ATP hydrolysis at 3.9 uM measured up to 60 mins
[25] = target: T1, DNA topoisomerase 2-alpha; assay: Inhibition of human DNA topoisomerase IIalpha ATPase activity assessed as residual ATP hydrolysis at 31.5 uM measured up to 60 mins
[26] = target: T1, DNA topoisomerase 2-alpha; assay: Inhibition of human DNA topoisomerase IIalpha ATPase activity assessed as residual ATP hydrolysis at 125 uM measured up to 60 mins
[27] = target: T1, DNA topoisomerase 2-alpha; assay: Inhibition of human DNA topoisomerase IIalpha ATPase activity assessed as residual ATP hydrolysis at 500 uM measured up to 60 mins

T1 sequence (P11388 whole entry): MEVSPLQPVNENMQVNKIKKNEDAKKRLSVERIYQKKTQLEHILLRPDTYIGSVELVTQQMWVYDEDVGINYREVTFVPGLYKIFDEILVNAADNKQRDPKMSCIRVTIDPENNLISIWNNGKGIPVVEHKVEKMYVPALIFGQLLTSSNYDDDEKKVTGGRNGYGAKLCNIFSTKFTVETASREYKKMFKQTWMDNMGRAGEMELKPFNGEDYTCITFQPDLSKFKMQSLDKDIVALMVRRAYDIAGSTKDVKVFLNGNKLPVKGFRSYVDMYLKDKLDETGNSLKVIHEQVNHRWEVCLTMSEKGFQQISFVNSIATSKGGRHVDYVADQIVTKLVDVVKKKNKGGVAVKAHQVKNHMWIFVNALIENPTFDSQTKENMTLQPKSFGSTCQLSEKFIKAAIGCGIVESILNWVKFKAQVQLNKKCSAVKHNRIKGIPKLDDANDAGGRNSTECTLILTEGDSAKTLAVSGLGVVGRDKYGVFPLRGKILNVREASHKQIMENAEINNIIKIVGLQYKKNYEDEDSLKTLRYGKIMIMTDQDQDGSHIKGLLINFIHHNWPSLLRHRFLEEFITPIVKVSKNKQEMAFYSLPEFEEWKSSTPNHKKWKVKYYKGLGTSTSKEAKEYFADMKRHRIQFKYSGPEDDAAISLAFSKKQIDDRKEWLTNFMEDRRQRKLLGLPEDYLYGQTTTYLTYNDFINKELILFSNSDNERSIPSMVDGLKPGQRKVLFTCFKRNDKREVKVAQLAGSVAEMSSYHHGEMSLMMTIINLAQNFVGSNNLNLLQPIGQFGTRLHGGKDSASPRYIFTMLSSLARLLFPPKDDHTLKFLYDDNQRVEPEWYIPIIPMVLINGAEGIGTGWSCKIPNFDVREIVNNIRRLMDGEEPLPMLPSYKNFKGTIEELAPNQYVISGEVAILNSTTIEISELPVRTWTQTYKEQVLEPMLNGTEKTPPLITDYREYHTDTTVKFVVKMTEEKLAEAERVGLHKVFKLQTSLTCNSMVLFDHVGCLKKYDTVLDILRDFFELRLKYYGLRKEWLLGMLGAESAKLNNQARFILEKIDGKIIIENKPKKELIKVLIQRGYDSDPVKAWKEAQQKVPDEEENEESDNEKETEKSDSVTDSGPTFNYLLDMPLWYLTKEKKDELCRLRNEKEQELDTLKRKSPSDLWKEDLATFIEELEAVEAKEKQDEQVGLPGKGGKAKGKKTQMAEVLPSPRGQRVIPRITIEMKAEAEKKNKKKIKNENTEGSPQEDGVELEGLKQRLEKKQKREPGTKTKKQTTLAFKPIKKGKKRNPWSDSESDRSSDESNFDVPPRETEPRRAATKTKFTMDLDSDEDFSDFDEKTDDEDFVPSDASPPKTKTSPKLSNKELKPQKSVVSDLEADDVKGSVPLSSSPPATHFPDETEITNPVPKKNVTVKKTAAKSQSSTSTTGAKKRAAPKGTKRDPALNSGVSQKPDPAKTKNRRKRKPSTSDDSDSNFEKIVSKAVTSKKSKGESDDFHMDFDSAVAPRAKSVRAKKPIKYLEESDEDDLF

An IC50 [1] of 72.5 µM, a logP [2] of 2.7 and an Activity [3] of 0.115% were found for `O=c1nc(SCc2ccccc2)nc(SCc2ccccc2F)[nH]1` in this work. The Activity [4] was 8.55%, the Activity [5] was 92.6% and the Activity [6] was 91.5%. For the same compound, the inhibition [7] was “Dose-dependent effect”, the Activity [8] was 3% and the Activity [9] was 2.3%. It also gave an Activity [10] of 1.6%, an Activity [11] of 2.3% and an Activity [12] of 3.1%. The Activity [13] was 2.1% and 18.1%, the Activity [14] was 34.6% and the Activity [15] was 34.3%. It also gave an Activity [16] of 33.5%, an Activity [17] of 9.2% and an Activity [18] of 5.3%. It also gave an Activity [19] of 20.6%, an Activity [20] of 18.5% and an Activity [21] of 16.3%. The Activity [22] was 1.4%, the inhibition [23] was “Dose-dependent effect” and the Activity [24] was 86.9%. It also gave an Activity [25] of 93.7%, an Activity [26] of 0% and an Activity [27] of 0%.
